Reference: ChEMBL document CHEMBL5360652, “Drug Discovery Targeting Nuclear Receptor Binding SET Domain Protein 2 (NSD2)” (J Med Chem, 2023)
One block for each compound: values may come before it.

Assays:
[1] = target: T1, Histone-lysine N-methyltransferase NSD2 (Homo sapiens) (UniProt O96028); test: Inhibition of NSD2 (unknown origin) at 50 uM relative to control
T1 sequence (whole entry): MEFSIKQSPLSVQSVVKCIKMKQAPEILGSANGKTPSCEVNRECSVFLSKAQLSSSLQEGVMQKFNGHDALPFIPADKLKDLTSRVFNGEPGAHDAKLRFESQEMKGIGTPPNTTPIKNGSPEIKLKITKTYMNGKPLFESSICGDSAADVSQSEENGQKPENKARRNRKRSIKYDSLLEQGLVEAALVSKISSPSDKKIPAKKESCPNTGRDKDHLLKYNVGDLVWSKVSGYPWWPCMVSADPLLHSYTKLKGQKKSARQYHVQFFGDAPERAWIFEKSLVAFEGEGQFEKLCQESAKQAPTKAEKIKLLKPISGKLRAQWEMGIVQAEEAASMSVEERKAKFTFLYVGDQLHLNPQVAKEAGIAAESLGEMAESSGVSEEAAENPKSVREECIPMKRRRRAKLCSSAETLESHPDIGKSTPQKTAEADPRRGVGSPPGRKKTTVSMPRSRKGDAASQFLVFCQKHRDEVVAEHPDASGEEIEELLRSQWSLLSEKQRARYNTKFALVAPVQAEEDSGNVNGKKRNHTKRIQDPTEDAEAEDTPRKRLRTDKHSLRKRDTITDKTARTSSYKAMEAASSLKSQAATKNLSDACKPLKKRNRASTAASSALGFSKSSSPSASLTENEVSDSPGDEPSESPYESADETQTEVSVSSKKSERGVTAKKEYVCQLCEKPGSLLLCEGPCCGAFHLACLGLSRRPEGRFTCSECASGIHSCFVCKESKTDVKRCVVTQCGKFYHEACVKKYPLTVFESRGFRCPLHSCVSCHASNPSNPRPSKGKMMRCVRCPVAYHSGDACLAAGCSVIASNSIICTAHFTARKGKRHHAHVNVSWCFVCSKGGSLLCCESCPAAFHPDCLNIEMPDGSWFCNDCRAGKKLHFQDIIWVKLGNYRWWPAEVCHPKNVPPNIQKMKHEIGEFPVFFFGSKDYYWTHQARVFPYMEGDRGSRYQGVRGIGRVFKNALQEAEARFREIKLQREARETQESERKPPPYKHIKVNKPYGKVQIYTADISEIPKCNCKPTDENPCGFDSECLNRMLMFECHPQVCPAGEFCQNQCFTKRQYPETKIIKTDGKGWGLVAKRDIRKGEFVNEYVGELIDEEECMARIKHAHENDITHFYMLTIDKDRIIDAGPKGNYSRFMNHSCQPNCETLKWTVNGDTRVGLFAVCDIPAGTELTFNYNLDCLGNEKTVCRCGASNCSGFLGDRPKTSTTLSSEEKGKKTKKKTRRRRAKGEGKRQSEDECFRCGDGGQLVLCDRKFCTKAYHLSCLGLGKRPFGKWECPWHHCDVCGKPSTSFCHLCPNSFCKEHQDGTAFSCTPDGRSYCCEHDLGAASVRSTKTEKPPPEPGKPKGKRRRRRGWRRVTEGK

[2] = target: T1, Histone-lysine N-methyltransferase NSD2 (Homo sapiens); test: Induction of degradation of NSD2 in human U2OS cells assessed as maximum degradation relative to control; type: cell-based
[3] = target: T2, Histone-lysine N-methyltransferase NSD2 (Homo sapiens, UniProt O96028); test: Induction of degradation of NSD2 in human U2OS cells; type: cell-based
T2 sequence (O96028 whole entry): T1 sequence (whole entry)

[4] = target: T3, Histone-lysine N-methyltransferase, H3 lysine-36 specific (Homo sapiens, UniProt Q96L73); test: Inhibition of NSD1 SET domain (1852 to 2105 residues) (unknown origin) expressed in Escherichia coli BL21 (DE3)
T3 sequence (Q96L73 whole entry, the tested form may be a part): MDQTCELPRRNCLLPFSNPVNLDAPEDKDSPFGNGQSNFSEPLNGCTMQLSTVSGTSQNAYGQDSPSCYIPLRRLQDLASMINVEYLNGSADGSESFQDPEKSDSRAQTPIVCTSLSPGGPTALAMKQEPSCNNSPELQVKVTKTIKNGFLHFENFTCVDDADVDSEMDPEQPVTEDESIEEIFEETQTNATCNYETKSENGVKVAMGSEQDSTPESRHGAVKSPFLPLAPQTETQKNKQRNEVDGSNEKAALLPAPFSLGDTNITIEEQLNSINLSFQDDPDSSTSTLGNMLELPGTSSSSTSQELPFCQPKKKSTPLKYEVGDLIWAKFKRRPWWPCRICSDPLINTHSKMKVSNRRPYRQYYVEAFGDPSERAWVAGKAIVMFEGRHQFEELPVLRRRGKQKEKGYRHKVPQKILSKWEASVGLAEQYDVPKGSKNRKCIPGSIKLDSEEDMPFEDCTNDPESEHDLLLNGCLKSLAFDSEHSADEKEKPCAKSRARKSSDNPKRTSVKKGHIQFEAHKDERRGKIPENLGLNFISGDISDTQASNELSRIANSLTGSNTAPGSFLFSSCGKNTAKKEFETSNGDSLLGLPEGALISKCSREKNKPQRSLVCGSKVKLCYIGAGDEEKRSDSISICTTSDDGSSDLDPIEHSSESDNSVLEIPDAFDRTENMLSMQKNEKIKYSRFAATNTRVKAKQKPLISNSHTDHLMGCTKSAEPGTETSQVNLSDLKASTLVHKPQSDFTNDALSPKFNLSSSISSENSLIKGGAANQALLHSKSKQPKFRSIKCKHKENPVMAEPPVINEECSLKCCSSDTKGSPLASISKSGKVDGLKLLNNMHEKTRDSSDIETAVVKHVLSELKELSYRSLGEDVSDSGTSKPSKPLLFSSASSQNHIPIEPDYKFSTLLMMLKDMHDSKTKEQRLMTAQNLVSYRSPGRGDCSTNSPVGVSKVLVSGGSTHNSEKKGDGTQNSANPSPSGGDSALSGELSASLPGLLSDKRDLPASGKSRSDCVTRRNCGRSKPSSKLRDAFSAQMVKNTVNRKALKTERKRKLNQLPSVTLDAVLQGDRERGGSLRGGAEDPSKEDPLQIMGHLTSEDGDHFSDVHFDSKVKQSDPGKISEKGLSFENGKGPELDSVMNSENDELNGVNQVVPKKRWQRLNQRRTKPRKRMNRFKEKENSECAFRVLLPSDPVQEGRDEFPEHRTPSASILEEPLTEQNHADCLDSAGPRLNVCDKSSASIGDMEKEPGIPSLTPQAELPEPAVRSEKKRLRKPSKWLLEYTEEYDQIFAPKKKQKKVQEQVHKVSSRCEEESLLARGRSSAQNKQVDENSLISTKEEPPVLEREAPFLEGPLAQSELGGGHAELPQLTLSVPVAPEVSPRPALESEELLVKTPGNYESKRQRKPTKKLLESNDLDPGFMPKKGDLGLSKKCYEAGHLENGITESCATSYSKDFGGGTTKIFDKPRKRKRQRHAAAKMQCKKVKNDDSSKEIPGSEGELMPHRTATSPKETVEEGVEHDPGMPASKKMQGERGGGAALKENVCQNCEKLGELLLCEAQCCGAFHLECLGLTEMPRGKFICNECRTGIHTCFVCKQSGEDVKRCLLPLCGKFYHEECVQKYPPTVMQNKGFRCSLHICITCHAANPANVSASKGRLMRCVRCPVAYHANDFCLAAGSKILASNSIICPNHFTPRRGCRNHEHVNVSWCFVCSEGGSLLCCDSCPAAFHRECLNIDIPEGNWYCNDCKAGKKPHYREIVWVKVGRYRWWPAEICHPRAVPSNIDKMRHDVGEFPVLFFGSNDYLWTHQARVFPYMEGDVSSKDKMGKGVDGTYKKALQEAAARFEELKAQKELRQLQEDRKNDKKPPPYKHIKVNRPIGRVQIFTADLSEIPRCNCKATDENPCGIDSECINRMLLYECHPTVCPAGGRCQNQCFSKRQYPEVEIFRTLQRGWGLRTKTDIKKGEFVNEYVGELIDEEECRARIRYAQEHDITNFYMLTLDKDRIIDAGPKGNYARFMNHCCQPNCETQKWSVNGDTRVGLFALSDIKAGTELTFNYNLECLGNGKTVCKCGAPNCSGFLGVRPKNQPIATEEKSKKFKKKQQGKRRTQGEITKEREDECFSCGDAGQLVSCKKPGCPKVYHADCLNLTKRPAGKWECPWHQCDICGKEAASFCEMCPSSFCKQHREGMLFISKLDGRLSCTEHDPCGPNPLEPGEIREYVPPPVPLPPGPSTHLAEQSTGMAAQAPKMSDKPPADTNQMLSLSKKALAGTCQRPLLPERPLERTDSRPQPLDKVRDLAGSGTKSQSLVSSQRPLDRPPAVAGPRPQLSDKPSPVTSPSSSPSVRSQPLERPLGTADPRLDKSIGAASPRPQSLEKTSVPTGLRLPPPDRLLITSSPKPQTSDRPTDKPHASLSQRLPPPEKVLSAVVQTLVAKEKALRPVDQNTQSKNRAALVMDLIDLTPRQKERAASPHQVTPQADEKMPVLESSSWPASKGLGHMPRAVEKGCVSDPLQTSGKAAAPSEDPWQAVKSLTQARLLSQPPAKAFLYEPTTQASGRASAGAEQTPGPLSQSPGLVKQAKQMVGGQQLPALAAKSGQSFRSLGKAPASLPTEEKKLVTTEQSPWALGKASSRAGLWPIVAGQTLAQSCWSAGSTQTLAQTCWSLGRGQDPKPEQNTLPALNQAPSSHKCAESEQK

[5] = target: T3, Histone-lysine N-methyltransferase, H3 lysine-36 specific; test: Inhibition of human recombinant NSD1 ([…] residues) expressed in Escherichia coli BL21 (DE3) incubated for 4 hrs by scintillation/filter assay
[6] = target: T4, Histone-lysine N-methyltransferase NSD3 (Homo sapiens, UniProt Q9BZ95); test: Inhibition of human recombinant NSD3 ([…] residues) expressed in Escherichia coli BL21 (DE3) incubated for 4 hrs by scintillation/filter assay
T4 sequence (Q9BZ95 whole entry): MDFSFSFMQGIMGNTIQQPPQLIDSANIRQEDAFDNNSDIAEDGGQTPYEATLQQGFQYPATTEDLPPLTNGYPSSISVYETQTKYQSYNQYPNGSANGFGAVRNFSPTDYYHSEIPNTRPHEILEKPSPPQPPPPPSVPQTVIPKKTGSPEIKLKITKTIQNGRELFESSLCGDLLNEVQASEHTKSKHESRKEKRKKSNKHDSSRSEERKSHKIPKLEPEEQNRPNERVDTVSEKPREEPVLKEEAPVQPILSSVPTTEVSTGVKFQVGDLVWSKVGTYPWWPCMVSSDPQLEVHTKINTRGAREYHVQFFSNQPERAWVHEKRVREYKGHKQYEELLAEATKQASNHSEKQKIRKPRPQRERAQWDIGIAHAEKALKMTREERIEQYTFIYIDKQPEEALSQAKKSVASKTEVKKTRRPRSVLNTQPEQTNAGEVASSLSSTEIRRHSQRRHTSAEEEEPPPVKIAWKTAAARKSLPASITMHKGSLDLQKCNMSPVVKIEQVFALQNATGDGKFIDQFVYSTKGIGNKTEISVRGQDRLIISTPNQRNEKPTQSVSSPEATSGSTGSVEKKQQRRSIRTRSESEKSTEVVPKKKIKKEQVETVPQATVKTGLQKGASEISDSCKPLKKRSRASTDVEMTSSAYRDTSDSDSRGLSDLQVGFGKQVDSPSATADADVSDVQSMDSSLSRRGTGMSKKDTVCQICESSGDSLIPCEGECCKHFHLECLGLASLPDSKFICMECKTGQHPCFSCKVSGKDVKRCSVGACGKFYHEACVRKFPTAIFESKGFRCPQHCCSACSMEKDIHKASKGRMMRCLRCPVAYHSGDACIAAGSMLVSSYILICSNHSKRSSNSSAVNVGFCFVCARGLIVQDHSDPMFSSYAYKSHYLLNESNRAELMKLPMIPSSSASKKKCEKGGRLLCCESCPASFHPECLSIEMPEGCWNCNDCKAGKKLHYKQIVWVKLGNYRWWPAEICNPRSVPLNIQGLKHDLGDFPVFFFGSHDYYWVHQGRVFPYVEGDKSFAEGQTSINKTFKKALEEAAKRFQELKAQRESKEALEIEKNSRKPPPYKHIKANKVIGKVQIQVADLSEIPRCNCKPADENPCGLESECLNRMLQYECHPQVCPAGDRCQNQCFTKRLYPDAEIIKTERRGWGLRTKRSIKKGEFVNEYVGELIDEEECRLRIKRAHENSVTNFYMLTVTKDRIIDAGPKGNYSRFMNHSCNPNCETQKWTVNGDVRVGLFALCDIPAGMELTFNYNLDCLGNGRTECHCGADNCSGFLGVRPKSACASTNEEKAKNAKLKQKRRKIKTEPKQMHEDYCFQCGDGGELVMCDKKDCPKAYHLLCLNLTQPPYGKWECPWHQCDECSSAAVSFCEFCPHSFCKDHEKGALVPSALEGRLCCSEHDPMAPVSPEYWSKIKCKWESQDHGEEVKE

[7] = target: von Hippel-Lindau disease tumor suppressor/Histone-lysine N-methyltransferase NSD3 (Homo sapiens) (UniProt Q9BZ95+P40337); test: Protac activity at VHL/NSD3 in human MOLM-13 cells assessed as induction of NSD3 degradation incubated for 48 hrs by immunoblotting analysis relative to control; type: cell-based
Sequence of von Hippel-Lindau disease tumor suppressor/Histone-lysine N-methyltransferase NSD3 (Homo sapiens) (P40337 whole entry, looked up, one chain of several, the tested form may be a part): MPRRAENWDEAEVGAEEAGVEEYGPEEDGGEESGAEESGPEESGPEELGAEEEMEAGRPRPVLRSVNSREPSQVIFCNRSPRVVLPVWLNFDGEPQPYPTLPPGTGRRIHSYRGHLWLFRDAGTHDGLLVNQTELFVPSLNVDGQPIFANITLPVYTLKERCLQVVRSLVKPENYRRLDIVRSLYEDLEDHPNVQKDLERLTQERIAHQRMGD

[8] = target: T4, Histone-lysine N-methyltransferase NSD3; test: Binding affinity to human recombinant NSD3 PWWP1 domain assessed as dissociation constant
[9] = target: von Hippel-Lindau disease tumor suppressor/Histone-lysine N-methyltransferase NSD3 (Homo sapiens, UniProt P40337+Q9BZ95); test: Protac activity at VHL/NSD3 in human MOLM-13 cells assessed as induction of NSD3 degradation incubated for 6 hrs by immunoblotting analysis; type: cell-based
Sequence of von Hippel-Lindau disease tumor suppressor/Histone-lysine N-methyltransferase NSD3 (P40337 whole entry, one chain of several, the tested form may be a part): as the sequence (P40337 whole entry, looked up, one chain of several, the tested form may be a part) above

[10] = Inhibition of N-terminal hexa-histidine tagged NSD3 SET domain (1066 to 1288 residues) (unknown origin) expressed in Escherichia coli incubated for 4 hrs by ITC method; parameters: species or system Homo sapiens
[11] = tested on: Respiratory syncytial virus; test: Antiviral activity against RSV assessed as viral growth inhibition; type: functional, organism-based; conditions: human respiratory syncytial virus
[12] = target: T4, Histone-lysine N-methyltransferase NSD3; test: Antagonist activity against recombinant human GST-tagged NSD3 PWWP1 domain (247 to 398 residues) expressed in Escherichia coli BL21(DE3) incubated for 60 mins by TR-FRET assay
[13] = target: T3, Histone-lysine N-methyltransferase, H3 lysine-36 specific; test: Inhibition of N-terminal hexa-histidine tagged NSD1 SET domain (1852 to 2105 residues) (unknown origin) expressed in Escherichia coli incubated for 2 hrs by ITC method
[14] = target: T2, Histone-lysine N-methyltransferase NSD2; test: Binding affinity to NSD2 PWWP1 domain (unknown origin) assessed as dissociation constant
[15] = target: T3, Histone-lysine N-methyltransferase, H3 lysine-36 specific; test: Inhibition of human recombinant NSD1 incubated for 2 hrs by AlphaLISA method

inhibition [1]: 92%
SMILES: N#Cc1cccc(NC(=O)Nc2ccc3nnsc3c2)c1

Emax [2]: 79%
EC50 [3]: 0.35 µM
SMILES: NCCCCCCNC(=O)c1ccc(NC(=O)c2ccc(CN(C(=O)c3ccc4c(c3)OCC(=O)N4)C3CC3)cc2)cc1

IC50 [4]: > 1000 µM
SMILES: O=C1O[C@@H](C(=O)N2CCN(Cc3nc4sc5c(c4c(=O)[nH]3)CCCC5)CC2)Cc2ccccc21

IC50 [5]: 112 µM
IC50 [6]: 95 µM
SMILES: COc1cc2nc(N3CCCN(C)CC3)nc(NC3CCN(Cc4ccccc4)CC3)c2cc1OC

Emax [7]: 80%
Kd [8]: 1.3 µM
EC50 [9]: 4.9 µM
SMILES: Cc1cc(CNCCCC(=O)NCCCCCCCCC(=O)N[C@H](C(=O)N2C[C@H](O)C[C@H]2C(=O)N[C@@H](C)c2ccc(-c3scnc3C)cc2)C(C)(C)C)cc(C)c1-c1ncn(C)c1-c1ccnc2cc(F)ccc12

SMILES: CC1CN1c1cc(O)c2nc(N)sc2c1 (stereo not drawn)
IC50 [10]: 14.3 µM

IC50 [12]: 0.11 µM
SMILES: Cc1cc(CN2CCC(N)CC2)cc(C)c1-c1ncn(C)c1-c1ccc(C#N)c2ccccc12
IC50 [11]: 6.3 µM

IC50 [13]: < 20 µM
SMILES: N#CSc1cc(O)c2nc(N)sc2c1

Kd [8]: 0.046 µM
Kd [14]: 0.046 µM
SMILES: O=C(CCCC[C@@H]1SC[C@@H]2NC(=O)N[C@@H]21)NCCOCCOCCOCCOCCOCCOCCOCCOCCOCCOCCOCCNC(=O)c1ccc(NC(=O)c2ccc(CN(C(=O)c3ccc4c(c3)OCC(=O)N4)C3CC3)cc2)cc1

IC50 [15]: 0.225 µM
SMILES: COC[C@@]1(N)CCCN(c2cnc(-c3ccc(F)cc3F)cc2Cn2cnc3c(N)ncnc32)C1

IC50 [15]: 0.16 µM
SMILES: COC[C@@]1(N)CCCN(c2cnc(-c3ccc(F)c(F)c3)cc2Cn2cnc3c(N)ncnc32)C1

IC50 [15]: 0.214 µM
SMILES: Nc1ncnc2c1ncn2Cc1cc(-c2ccc(F)c(F)c2)ncc1N1CCC[C@](N)(COC2CC2)C1
